In patent US5486525A, “Platelet activating factor antagonists: imidazopyridine indoles” (priority 1994, dated 1996):
Where two headings read alike, the source gives them in different places.

Molecular target: T1, PAF receptor (Oryctolagus cuniculus, UniProt G1TEI7)
T1 construct: platelet membranes were prepared by centrifugation and washing; tissue Pel-Freez (Rogers, AR); host or cells: rabbit blood platelets (membranes prepared from citrated whole rabbit blood)
Experiment: PAF receptor binding assay: inhibition of specific [^3 H]C18 -PAF binding to rabbit platelet membranes

T1 sequence (G1TEI7 1-342): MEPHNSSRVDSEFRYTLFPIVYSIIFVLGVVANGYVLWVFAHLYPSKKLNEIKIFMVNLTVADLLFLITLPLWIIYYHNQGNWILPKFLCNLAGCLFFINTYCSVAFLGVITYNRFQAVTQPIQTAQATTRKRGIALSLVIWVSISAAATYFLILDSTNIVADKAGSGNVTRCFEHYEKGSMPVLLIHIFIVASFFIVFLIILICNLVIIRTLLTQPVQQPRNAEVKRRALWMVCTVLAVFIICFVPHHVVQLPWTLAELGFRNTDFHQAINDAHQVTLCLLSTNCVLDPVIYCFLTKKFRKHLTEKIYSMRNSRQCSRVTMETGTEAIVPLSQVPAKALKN

Row | SMILES | Ki | further results
1 | Cc1nc2cnccc2n1Cc1ccc(C(=O)c2cn(C(=O)N(C)C)c3cc(-c4ccc(F)cc4)ccc23)cc1 [Example 4, 1-N,N-Dimethylcarbamoyl-6-(4-fluorophenyl)-3-{4-[(1H-2-methylimidazo[4.5-c]pyrid-1-yl)methyl]benzoyl}indole] | 2.3 nM | –
2 | COC(=O)c1cccc2c1c(C(=O)c1ccc(Cn3c(C)nc4cnccc43)cc1)cn2S(=O)(=O)N(C)C [Example 131, 1-N,N-Dimethylsulfamoyl-4-methoxycarbonyl-3-{4-[(1H-2-methylimidazo[4.5-c]pyrid-1-yl)methyl]benzoyl}indole] | 4.7 nM | –
3 | Cc1nc2ccncc2n1CC(=O)c1cn(C(=O)N(C)C)c2ccccc12 [Example 25, 1-N,N-Dimethylcarbamoyl-3-[(3H-2-methylimidazo[4.5-c]pyrid-3-yl)methylcarbonyl]indole] | – | inhibition at 1 µM (Table 1, @ 1.0 μM, read-out: % Inhibition): 14%
4 | Cc1nc2cnccc2n1CC(=O)c1cn(C(=O)N(C)C)c2ccccc12 [Example 26, 1-N,N-Dimethylcarbamoyl-3-[(1H-2-methylimidazo[4.5-c]pyrid-1-yl)methylcarbonyl]indole] | – | inhibition at 1 µM: 7%
5 | Cc1nc2ccncc2n1Cc1cccc(C(=O)c2c[nH]c3ccccc23)c1 [Example 19, 3-{3-[(3H-2-Methylimidazo[4.5-c]pyrid-3-yl)methyl]benzoyl}indole] | – | Ki (Table 1, rabbit platelet membranes, 0.6 nM [^3 H]C18 -PAF, 60 minutes at room temperature, Ki by Cheng and Prusoff, read-out: Ki): 280 nM
6 | Cc1nc2cnccc2n1-c1ccc(C(=O)c2cn(C(=O)N(C)C)c3ccccc23)cc1 [Example 22, 1-N,N-Dimethylcarbamoyl-3-{4-[(1H-2-methylimidazo[4.5-c]pyrid-1-yl)]benzoyl}indole] | 146 nM | –
7 | COC(=O)c1cccc2c1c(C(=O)c1ccc(Cn3c(C)nc4cnccc43)cc1)cn2CC(=O)C(C)(C)C [Example 135, 1-(1-Pinacolyl)4-methoxycarbonyl-3-{4-[(1H-2-methylimidazo[4.5-c]pyrid-1-yl)methyl]benzoyl}indole] | 1.3 nM | –
8 | COC(=O)c1cccc2c1c(C(=O)c1ccc(Cn3c(C(F)(F)F)nc4ccccc43)cc1)cn2C(=O)N(C)C [Example 162, 1-N,N-Dimethylcarbamoyl-4-methoxycarbonyl-3-{4-[(1H-2-(trifluoromethyl)benzimidazolyl)methyl]benzoyl}indole] | 14 nM | –
